The supplement of paper PMC12463676, “Small-molecule dissolution of stress granules by redox modulation benefits ALS models” (Nature Chemical Biology, 2025)

What was measured:
lipoamide = compound: NC(=O)CCCCC1CCSS1 [lipoamide]; assay: thermal stability z-score vs DMSO; higher = more thermally stabilized by treatment; conditions: HeLa, lipoamide concentration 100 µM
Method: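 Cellular thermal proteome profiling in HeLa cells. Cells were treated with 100 µM lipoamide for 1 h, with or without 1 mM arsenate for a further 1 h, then heated to ten temperatures (37-66.3 °C), and soluble protein was quantified by TMT mass spectrometry relative to 0.1% DMSO controls. The thermal stability score (sum of log2 fold changes minus the abundance score) was transformed to a z-score; mean of n = 3 experiments.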

potassium arsenate = compound: O=[As]([O-])(O)O.[K+] [potassium arsenate]; assay: as above; conditions: HeLa; arsenate concentration 1 mM
Method: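 Cellular thermal proteome profiling in HeLa cells treated with 1 mM arsenate for 1 h (DMSO pretreatment), heated to ten temperatures (37-66.3 °C). Soluble protein was quantified by TMT mass spectrometry relative to DMSO controls; the thermal stability score was transformed to a z-score; mean of n = 3 experiments.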

[1] = arsenate co-treatment: 1 mM arsenate 1 h
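Note: each temperature applied for 3 min, abundance score taken as mean log2 fold change at the two lowest temperatures, z-score obtained by mean subtraction and division by SD.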

MMP15 (UniProt P51511)
thermal stability z-score (lipoamide; [1]): -0.901 | thermal stability z-score (lipoamide; arsenate co-treatment: none): -0.632 | thermal stability z-score (potassium arsenate): -0.00399

MMS19 (UniProt Q96T76)
UniProt Q96T76, sequence (Q96T76 whole entry): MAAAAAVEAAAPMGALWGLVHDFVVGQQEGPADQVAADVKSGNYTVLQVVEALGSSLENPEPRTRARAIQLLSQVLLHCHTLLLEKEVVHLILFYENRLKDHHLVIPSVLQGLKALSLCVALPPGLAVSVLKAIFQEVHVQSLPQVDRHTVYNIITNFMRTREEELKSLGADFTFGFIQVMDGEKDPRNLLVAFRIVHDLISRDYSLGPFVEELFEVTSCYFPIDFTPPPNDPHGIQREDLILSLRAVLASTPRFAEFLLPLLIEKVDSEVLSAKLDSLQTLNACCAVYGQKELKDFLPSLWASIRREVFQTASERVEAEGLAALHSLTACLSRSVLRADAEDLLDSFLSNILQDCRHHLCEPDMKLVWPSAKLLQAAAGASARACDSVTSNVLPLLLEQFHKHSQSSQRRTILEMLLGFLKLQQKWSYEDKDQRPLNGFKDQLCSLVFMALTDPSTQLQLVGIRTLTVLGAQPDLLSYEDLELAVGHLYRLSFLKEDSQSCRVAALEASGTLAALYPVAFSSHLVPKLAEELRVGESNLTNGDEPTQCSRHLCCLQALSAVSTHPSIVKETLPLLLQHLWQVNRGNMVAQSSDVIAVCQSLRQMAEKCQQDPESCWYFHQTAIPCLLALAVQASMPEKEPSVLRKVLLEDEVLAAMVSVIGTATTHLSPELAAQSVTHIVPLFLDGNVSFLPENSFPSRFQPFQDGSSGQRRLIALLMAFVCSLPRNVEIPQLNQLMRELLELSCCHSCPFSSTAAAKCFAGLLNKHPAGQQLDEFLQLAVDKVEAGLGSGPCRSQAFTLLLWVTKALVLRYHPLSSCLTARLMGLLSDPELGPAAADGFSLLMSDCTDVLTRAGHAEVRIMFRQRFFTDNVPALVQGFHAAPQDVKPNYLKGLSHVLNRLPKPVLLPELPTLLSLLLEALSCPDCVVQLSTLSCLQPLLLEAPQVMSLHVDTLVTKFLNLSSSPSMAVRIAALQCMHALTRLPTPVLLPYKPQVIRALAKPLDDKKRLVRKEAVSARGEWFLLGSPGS
thermal stability z-score (lipoamide; [1]): -0.784 | thermal stability z-score (lipoamide; arsenate co-treatment: none): -1.16 | thermal stability z-score (potassium arsenate): -0.949

MMTAG2 (UniProt Q9BU76)
thermal stability z-score (lipoamide; [1]): 2.29 | thermal stability z-score (lipoamide; arsenate co-treatment: none): 0.684 | thermal stability z-score (potassium arsenate): 0.188

MNAT1 (UniProt P51948)
thermal stability z-score (lipoamide; [1]): -0.257 | thermal stability z-score (lipoamide; arsenate co-treatment: none): -0.423 | thermal stability z-score (potassium arsenate): 0.102

MND1 (UniProt Q9BWT6)
thermal stability z-score (lipoamide; [1]): -0.235 | thermal stability z-score (lipoamide; arsenate co-treatment: none): -0.0119 | thermal stability z-score (potassium arsenate): 0.296

MOB1B|MOB1A
thermal stability z-score (lipoamide; [1]): 1.02 | thermal stability z-score (lipoamide; arsenate co-treatment: none): 0.33 | thermal stability z-score (potassium arsenate): 0.896

MOB2 (UniProt Q70IA6)
thermal stability z-score (lipoamide; [1]): -0.235 | thermal stability z-score (lipoamide; arsenate co-treatment: none): -0.176 | thermal stability z-score (potassium arsenate): 0.0529

MOCOS (UniProt Q96EN8)
thermal stability z-score (lipoamide; [1]): 0.344 | thermal stability z-score (lipoamide; arsenate co-treatment: none): 0.221 | thermal stability z-score (potassium arsenate): -0.535

MOCS2
thermal stability z-score (lipoamide; [1]): 0.00471 | thermal stability z-score (lipoamide; arsenate co-treatment: none): 0.303 | thermal stability z-score (potassium arsenate): -0.289

MOCS3 (UniProt O95396)
UniProt O95396, sequence (O95396 whole entry): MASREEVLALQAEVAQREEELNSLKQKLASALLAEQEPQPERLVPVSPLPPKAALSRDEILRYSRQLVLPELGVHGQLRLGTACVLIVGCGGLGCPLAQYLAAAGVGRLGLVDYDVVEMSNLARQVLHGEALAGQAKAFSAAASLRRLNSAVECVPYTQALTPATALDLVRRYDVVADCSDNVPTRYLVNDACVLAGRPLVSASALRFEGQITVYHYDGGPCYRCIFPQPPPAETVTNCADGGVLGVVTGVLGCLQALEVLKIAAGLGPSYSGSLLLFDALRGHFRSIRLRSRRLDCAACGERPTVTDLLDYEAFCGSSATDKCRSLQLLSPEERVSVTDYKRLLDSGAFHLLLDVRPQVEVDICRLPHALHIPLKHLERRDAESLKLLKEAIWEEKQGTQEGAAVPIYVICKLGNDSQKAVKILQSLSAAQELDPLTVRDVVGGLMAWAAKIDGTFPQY
thermal stability z-score (lipoamide; [1]): 0.01 | thermal stability z-score (lipoamide; arsenate co-treatment: none): -0.0171 | thermal stability z-score (potassium arsenate): -0.0988

MOGS (UniProt Q13724)
thermal stability z-score (lipoamide; [1]): -1.24 | thermal stability z-score (lipoamide; arsenate co-treatment: none): -0.979 | thermal stability z-score (potassium arsenate): 0.158

MON1B (UniProt Q7L1V2)
thermal stability z-score (lipoamide; [1]): 0.955 | thermal stability z-score (lipoamide; arsenate co-treatment: none): 0.582 | thermal stability z-score (potassium arsenate): 0.685

MON2 (UniProt Q7Z3U7)
thermal stability z-score (lipoamide; [1]): 0.0206 | thermal stability z-score (lipoamide; arsenate co-treatment: none): 0.307 | thermal stability z-score (potassium arsenate): 0.63

MORC2 (UniProt Q9Y6X9)
UniProt Q9Y6X9, sequence (Q9Y6X9 whole entry): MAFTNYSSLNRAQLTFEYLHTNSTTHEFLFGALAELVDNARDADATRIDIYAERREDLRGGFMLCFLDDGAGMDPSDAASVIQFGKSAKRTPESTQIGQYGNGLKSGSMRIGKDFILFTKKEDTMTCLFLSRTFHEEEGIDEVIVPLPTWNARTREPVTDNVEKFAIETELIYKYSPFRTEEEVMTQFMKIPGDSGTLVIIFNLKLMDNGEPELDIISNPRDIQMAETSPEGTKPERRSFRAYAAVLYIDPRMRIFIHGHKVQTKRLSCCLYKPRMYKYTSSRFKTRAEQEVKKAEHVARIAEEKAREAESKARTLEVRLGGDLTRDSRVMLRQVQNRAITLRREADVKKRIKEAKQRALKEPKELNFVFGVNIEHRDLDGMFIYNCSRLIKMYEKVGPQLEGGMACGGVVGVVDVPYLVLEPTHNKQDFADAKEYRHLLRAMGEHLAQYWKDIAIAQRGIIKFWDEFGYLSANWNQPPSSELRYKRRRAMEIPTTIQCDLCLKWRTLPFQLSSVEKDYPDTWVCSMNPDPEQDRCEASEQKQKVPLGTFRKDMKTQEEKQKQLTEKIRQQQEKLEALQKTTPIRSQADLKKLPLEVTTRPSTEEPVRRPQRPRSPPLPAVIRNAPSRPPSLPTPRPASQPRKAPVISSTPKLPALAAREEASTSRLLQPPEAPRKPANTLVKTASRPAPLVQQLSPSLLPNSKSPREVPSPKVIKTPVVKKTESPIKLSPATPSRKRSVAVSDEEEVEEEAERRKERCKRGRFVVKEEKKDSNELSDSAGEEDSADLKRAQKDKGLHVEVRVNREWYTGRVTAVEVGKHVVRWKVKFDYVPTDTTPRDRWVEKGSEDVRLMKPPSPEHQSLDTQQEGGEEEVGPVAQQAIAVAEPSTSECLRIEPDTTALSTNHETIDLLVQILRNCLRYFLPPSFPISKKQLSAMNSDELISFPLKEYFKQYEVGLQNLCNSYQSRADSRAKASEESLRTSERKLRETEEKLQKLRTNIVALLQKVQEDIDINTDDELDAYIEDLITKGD
thermal stability z-score (lipoamide; [1]): -0.165 | thermal stability z-score (lipoamide; arsenate co-treatment: none): -0.0529 | thermal stability z-score (potassium arsenate): -0.726

MORC3 (UniProt Q14149)
UniProt Q14149, sequence (Q14149 whole entry): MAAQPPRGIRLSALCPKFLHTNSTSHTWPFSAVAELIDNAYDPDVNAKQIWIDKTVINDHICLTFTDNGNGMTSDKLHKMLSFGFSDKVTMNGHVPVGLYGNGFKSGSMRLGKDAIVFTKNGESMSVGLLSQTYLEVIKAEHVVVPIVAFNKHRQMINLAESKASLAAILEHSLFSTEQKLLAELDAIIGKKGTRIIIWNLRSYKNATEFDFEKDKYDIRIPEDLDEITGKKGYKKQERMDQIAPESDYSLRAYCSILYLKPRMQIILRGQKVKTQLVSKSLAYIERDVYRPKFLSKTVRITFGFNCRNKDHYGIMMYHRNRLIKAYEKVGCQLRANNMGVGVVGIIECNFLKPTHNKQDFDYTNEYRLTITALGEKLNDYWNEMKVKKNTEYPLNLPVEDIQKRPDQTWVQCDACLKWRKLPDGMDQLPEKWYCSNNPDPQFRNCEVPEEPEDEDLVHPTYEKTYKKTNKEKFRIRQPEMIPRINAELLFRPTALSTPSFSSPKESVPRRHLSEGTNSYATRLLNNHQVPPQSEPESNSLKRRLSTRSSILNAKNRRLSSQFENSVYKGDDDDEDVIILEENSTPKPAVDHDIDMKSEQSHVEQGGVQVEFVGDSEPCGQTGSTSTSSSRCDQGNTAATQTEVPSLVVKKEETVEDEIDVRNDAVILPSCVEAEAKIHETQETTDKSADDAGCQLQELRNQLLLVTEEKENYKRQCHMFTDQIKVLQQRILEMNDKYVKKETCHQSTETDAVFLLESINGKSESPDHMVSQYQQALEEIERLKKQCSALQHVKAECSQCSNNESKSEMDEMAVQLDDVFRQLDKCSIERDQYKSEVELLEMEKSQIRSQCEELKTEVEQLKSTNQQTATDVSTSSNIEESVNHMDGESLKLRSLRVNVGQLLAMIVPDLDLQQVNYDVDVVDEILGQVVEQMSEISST
thermal stability z-score (lipoamide; [1]): -0.165 | thermal stability z-score (lipoamide; arsenate co-treatment: none): -0.119 | thermal stability z-score (potassium arsenate): -0.054

MORF4L1 (UniProt Q9UBU8)
thermal stability z-score (lipoamide; [1]): -0.486 | thermal stability z-score (lipoamide; arsenate co-treatment: none): 0.0693 | thermal stability z-score (potassium arsenate): 0.343

MORF4L2 (UniProt Q15014)
thermal stability z-score (lipoamide; [1]): -0.451 | thermal stability z-score (lipoamide; arsenate co-treatment: none): -0.148 | thermal stability z-score (potassium arsenate): -0.58

MOSPD1 (UniProt Q9UJG1)
thermal stability z-score (lipoamide; [1]): -0.167 | thermal stability z-score (lipoamide; arsenate co-treatment: none): -0.25 | thermal stability z-score (potassium arsenate): -0.354

MOSPD2 (UniProt Q8NHP6)
thermal stability z-score (lipoamide; [1]): -0.58 | thermal stability z-score (lipoamide; arsenate co-treatment: none): -0.383 | thermal stability z-score (potassium arsenate): -0.254

MOV10 (UniProt Q9HCE1)
thermal stability z-score (lipoamide; [1]): -0.0627 | thermal stability z-score (lipoamide; arsenate co-treatment: none): 0.31 | thermal stability z-score (potassium arsenate): -0.16

MP68 (UniProt P56378)
thermal stability z-score (lipoamide; [1]): 0.962 | thermal stability z-score (lipoamide; arsenate co-treatment: none): 0.921 | thermal stability z-score (potassium arsenate): 1.15

MPC2 (UniProt O95563)
thermal stability z-score (lipoamide; [1]): 0.0545 | thermal stability z-score (lipoamide; arsenate co-treatment: none): -0.501 | thermal stability z-score (potassium arsenate): 1.64

MPDZ (UniProt O75970)
thermal stability z-score (lipoamide; [1]): -0.25 | thermal stability z-score (lipoamide; arsenate co-treatment: none): -0.0819 | thermal stability z-score (potassium arsenate): 0.0169

MPG (UniProt P29372)
thermal stability z-score (lipoamide; [1]): 0.128 | thermal stability z-score (lipoamide; arsenate co-treatment: none): 0.378 | thermal stability z-score (potassium arsenate): 0.572

MPHOSPH6 (UniProt Q99547)
thermal stability z-score (lipoamide; [1]): 0.29 | thermal stability z-score (lipoamide; arsenate co-treatment: none): -0.917 | thermal stability z-score (potassium arsenate): -2.13

MPHOSPH10 (UniProt O00566)
UniProt O00566, sequence (O00566 whole entry): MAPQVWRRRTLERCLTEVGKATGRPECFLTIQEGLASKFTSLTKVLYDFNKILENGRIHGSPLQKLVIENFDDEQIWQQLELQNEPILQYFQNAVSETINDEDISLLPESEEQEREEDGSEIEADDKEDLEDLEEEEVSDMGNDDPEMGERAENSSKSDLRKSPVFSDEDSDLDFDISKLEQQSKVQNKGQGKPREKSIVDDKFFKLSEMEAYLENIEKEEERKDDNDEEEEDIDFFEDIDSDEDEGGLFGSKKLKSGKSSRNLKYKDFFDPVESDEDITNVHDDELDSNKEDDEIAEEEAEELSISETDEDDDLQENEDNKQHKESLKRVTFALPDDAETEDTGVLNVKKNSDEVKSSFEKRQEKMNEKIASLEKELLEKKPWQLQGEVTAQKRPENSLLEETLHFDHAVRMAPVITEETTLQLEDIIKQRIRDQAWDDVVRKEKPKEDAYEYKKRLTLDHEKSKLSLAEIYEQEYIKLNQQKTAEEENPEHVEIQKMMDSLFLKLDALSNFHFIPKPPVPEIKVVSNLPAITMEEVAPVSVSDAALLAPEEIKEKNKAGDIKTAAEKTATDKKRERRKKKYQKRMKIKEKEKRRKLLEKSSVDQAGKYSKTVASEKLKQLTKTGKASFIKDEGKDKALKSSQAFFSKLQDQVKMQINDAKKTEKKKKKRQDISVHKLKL
thermal stability z-score (lipoamide; [1]): 0.544 | thermal stability z-score (lipoamide; arsenate co-treatment: none): 0.827 | thermal stability z-score (potassium arsenate): 0.849

MPI (UniProt P34949)
thermal stability z-score (lipoamide; [1]): -0.333 | thermal stability z-score (lipoamide; arsenate co-treatment: none): -0.379 | thermal stability z-score (potassium arsenate): 0.187

MPP1 (UniProt Q00013)
thermal stability z-score (lipoamide; [1]): -0.0663 | thermal stability z-score (lipoamide; arsenate co-treatment: none): -0.0569 | thermal stability z-score (potassium arsenate): -0.163

MPP5 (UniProt Q8N3R9)
thermal stability z-score (lipoamide; [1]): -0.0805 | thermal stability z-score (lipoamide; arsenate co-treatment: none): -0.0555 | thermal stability z-score (potassium arsenate): -0.004

MPP6
thermal stability z-score (lipoamide; [1]): -0.288 | thermal stability z-score (lipoamide; arsenate co-treatment: none): -0.0854 | thermal stability z-score (potassium arsenate): -0.29

MPP7 (UniProt Q5T2T1)
thermal stability z-score (lipoamide; [1]): -0.0378 | thermal stability z-score (lipoamide; arsenate co-treatment: none): -0.274 | thermal stability z-score (potassium arsenate): -0.0635

MPRIP (UniProt Q6WCQ1)
thermal stability z-score (lipoamide; [1]): 0.435 | thermal stability z-score (lipoamide; arsenate co-treatment: none): 0.401 | thermal stability z-score (potassium arsenate): 0.452

MPST (UniProt P25325)
thermal stability z-score (lipoamide; [1]): 0.689 | thermal stability z-score (lipoamide; arsenate co-treatment: none): 0.913 | thermal stability z-score (potassium arsenate): -0.099

MPZL1 (UniProt O95297)
thermal stability z-score (lipoamide; [1]): 0.0579 | thermal stability z-score (lipoamide; arsenate co-treatment: none): 0.206 | thermal stability z-score (potassium arsenate): 0.179

MPZL2 (UniProt O60487)
thermal stability z-score (lipoamide; [1]): 0.503 | thermal stability z-score (lipoamide; arsenate co-treatment: none): -0.0637 | thermal stability z-score (potassium arsenate): -0.0559

MRAS (UniProt O14807)
thermal stability z-score (lipoamide; [1]): 0.488 | thermal stability z-score (lipoamide; arsenate co-treatment: none): -0.67 | thermal stability z-score (potassium arsenate): 0.0682

MRE11A (UniProt P49959)
thermal stability z-score (lipoamide; [1]): 0.729 | thermal stability z-score (lipoamide; arsenate co-treatment: none): 0.164 | thermal stability z-score (potassium arsenate): -0.619

MRFAP1 (UniProt Q9Y605)
UniProt Q9Y605, sequence (Q9Y605 whole entry): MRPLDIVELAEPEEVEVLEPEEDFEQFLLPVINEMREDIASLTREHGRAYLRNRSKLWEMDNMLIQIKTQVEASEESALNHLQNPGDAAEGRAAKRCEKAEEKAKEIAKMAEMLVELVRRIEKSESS
thermal stability z-score (lipoamide; [1]): 0.86 | thermal stability z-score (lipoamide; arsenate co-treatment: none): -0.215 | thermal stability z-score (potassium arsenate): -0.23

MRGBP (UniProt Q9NV56)
thermal stability z-score (lipoamide; [1]): 0.386 | thermal stability z-score (lipoamide; arsenate co-treatment: none): -0.212 | thermal stability z-score (potassium arsenate): -0.45

MRI1 (UniProt Q9BV20)
thermal stability z-score (lipoamide; [1]): 0.156 | thermal stability z-score (lipoamide; arsenate co-treatment: none): 0.0639 | thermal stability z-score (potassium arsenate): -0.37

MRM1 (UniProt Q6IN84)
UniProt Q6IN84, sequence (Q6IN84 whole entry): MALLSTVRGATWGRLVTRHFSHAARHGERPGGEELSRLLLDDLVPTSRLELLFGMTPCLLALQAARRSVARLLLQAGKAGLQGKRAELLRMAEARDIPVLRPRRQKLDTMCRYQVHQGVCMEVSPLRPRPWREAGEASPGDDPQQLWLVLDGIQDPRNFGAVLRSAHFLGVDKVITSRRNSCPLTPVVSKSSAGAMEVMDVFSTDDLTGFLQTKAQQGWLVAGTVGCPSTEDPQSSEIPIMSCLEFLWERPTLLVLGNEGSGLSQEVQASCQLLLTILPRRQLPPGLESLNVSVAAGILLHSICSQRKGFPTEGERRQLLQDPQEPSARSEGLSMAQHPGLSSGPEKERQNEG
thermal stability z-score (lipoamide; [1]): -0.994 | thermal stability z-score (lipoamide; arsenate co-treatment: none): -0.349 | thermal stability z-score (potassium arsenate): -0.991

MRM3 (UniProt Q9HC36)
UniProt Q9HC36, sequence (Q9HC36 whole entry): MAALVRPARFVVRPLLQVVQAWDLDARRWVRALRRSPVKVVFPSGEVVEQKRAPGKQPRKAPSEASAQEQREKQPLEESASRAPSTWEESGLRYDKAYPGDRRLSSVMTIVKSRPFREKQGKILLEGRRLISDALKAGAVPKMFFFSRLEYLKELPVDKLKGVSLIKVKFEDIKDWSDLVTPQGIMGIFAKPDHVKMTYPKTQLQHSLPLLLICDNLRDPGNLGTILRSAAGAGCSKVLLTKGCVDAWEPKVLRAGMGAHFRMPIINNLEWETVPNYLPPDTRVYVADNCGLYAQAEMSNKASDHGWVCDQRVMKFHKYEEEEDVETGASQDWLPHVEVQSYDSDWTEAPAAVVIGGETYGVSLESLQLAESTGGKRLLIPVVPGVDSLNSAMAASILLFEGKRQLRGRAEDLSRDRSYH
thermal stability z-score (lipoamide; [1]): -0.128 | thermal stability z-score (lipoamide; arsenate co-treatment: none): -0.165 | thermal stability z-score (potassium arsenate): -0.218

MRPL1 (UniProt Q9BYD6)
thermal stability z-score (lipoamide; [1]): -0.253 | thermal stability z-score (lipoamide; arsenate co-treatment: none): -0.245 | thermal stability z-score (potassium arsenate): 0.374

MRPL2 (UniProt Q5T653)
thermal stability z-score (lipoamide; [1]): 0.745 | thermal stability z-score (lipoamide; arsenate co-treatment: none): 0.173 | thermal stability z-score (potassium arsenate): 0.601

MRPL3 (UniProt P09001)
thermal stability z-score (lipoamide; [1]): -0.851 | thermal stability z-score (lipoamide; arsenate co-treatment: none): -0.0275 | thermal stability z-score (potassium arsenate): -0.132

MRPL4 (UniProt Q9BYD3)
thermal stability z-score (lipoamide; [1]): -0.319 | thermal stability z-score (lipoamide; arsenate co-treatment: none): -0.59 | thermal stability z-score (potassium arsenate): -0.138

MRPL9 (UniProt Q9BYD2)
thermal stability z-score (lipoamide; [1]): -0.106 | thermal stability z-score (lipoamide; arsenate co-treatment: none): 0.203 | thermal stability z-score (potassium arsenate): 0.232

MRPL10 (UniProt Q7Z7H8)
thermal stability z-score (lipoamide; [1]): 0.127 | thermal stability z-score (lipoamide; arsenate co-treatment: none): 0.224 | thermal stability z-score (potassium arsenate): 0.0461

MRPL11 (UniProt Q9Y3B7)
thermal stability z-score (lipoamide; [1]): -0.211 | thermal stability z-score (lipoamide; arsenate co-treatment: none): 0.169 | thermal stability z-score (potassium arsenate): 0.0228

MRPL13 (UniProt Q9BYD1)
thermal stability z-score (lipoamide; [1]): -0.175 | thermal stability z-score (lipoamide; arsenate co-treatment: none): -0.451 | thermal stability z-score (potassium arsenate): -0.201

MRPL14 (UniProt Q6P1L8)
thermal stability z-score (lipoamide; [1]): -0.566 | thermal stability z-score (lipoamide; arsenate co-treatment: none): 0.0684 | thermal stability z-score (potassium arsenate): 1.59

MRPL15 (UniProt Q9P015)
thermal stability z-score (lipoamide; [1]): -0.144 | thermal stability z-score (lipoamide; arsenate co-treatment: none): -0.0219 | thermal stability z-score (potassium arsenate): -0.33

MRPL16 (UniProt Q9NX20)
thermal stability z-score (lipoamide; [1]): -0.269 | thermal stability z-score (lipoamide; arsenate co-treatment: none): -0.373 | thermal stability z-score (potassium arsenate): -0.974

MRPL17 (UniProt Q9NRX2)
thermal stability z-score (lipoamide; [1]): 0.0551 | thermal stability z-score (lipoamide; arsenate co-treatment: none): 0.00699 | thermal stability z-score (potassium arsenate): -0.206

MRPL18 (UniProt Q9H0U6)
thermal stability z-score (lipoamide; [1]): -0.339 | thermal stability z-score (lipoamide; arsenate co-treatment: none): -0.0505 | thermal stability z-score (potassium arsenate): -0.799

MRPL19 (UniProt P49406)
thermal stability z-score (lipoamide; [1]): -0.287 | thermal stability z-score (lipoamide; arsenate co-treatment: none): -0.00717 | thermal stability z-score (potassium arsenate): 0.274
